Results: US4755594A, “N^6 -substituted adenosines” (Warner-Lambert Company, priority 1986, dated 1988)

Legend:
adenosine A2 receptor = target: T1, adenosine A2 receptor (Rattus norvegicus, UniProt P30543); experiment: Adenosine Receptor Binding--A2 Receptor Affinity (RBA2), [3H]NECA, striatal membranes; conditions: read-out: RBA-2 IC50
T1 construct: Brains were thawed and then kept on ice while the striata were dissected out; tissue Pel-Freez (Rogers, Ark.); host or cells: striata of Sprague-Dawley rats (Long-Evans hooded rats gave essentially identical results)
T1 sequence (P30543 whole entry): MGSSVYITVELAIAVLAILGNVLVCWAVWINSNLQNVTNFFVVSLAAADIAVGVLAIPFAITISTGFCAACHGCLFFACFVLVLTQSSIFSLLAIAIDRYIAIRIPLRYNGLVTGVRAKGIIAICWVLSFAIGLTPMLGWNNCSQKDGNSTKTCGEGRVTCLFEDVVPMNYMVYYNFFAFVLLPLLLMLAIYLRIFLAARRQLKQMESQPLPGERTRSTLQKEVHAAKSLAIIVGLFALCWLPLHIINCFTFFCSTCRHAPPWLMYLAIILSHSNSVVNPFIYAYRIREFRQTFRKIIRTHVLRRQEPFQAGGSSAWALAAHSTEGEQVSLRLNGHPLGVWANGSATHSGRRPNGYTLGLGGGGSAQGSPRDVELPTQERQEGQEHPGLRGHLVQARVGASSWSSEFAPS
Protocol: Adenosine Receptor Binding--A2 Receptor Affinity (RBA2)
Brains from 200-500 g mixed sex Sprague-Dawley rats were purchased from Pel-Freez (Rogers, Ark.). Fresh brains from male Long-Evans hooded rats (Blue Spruce Farms, Altamont, NY) gave essentially identical results. Brains were thawed and then kept on ice while the striata were dissected out. Striata were disrupted in 10 vol of ice-cold 50 mM Tris.HCl (pH 7.7 at 25° C., pH 8.26 at 5° C.) (Tris) for 30 seconds in a Polytron PT-10 (Brinkmann) at setting 5. The suspension was centrifuged at 50,000 xg for ten minutes, the supernatant discarded, the pellet resuspended in 10 vol ice-cold Tris as above, recentrifuged, resuspended at 1 g/5ml, and stored in plastic vials at -70° C. (stable for at least six months). When needed, tissue was thawed at room temperature, disrupted in a Polytron, and kept on ice until used.
All incubations were for 60 minutes at 25° C. in 12×75 mm glass tubes containing 1 ml Tris with 5 mg original tissue weight of rat weight of rat striatal membranes, 4 nM [^3 H]--N-ethyl adenosine-5'-carboxamide ([^3 H]NECA), 50 nM N^6 -cyclopentyladenosine (to eliminate A1 receptor binding), 10 mM MgCl2, 0.1 units/ml of adenosine deaminase and 1% dimethylsulfoxide. N^6 -Cyclopentyladenosine was dissolved at 10 mM in 0.02N HCl and diluted in Tris. Stock solutions and dilutions of N^6 -cyclopentyladenosine could be stored at -20° C. for several months. Test compounds were dissolved at 10 mM in dimethylsulfoxide on the same day as the experiment, and diluted in dimethylsulfoxide to 100×the final incubation concentration. Control incubations received an equal volume (10 μl) of dimethylsulfoxide; the resulting concentration of dimethylsulfoxide had no effect on binding. [^3 H]NECA was diluted to 40 nM in Tris. The membrane suspension (5 mg/0.79 ml) contained sufficient MgCl2 and adenosine deaminase to give 10 mM and 0.1 units/ml, respectively, final concentration in the incubation. […] After all additions, the rack of tubes was vortexed, and the tubes were then incubated for 60 min at 25° C. in a shaking water bath. The rack of tubes was vortexed an additional time halfway through the incubation.
Incubations were terminated by filtration through 2.4 cm GF/B filters under reduced pressure. Each tube was filtered as follows: the contents of the tube were poured on the filter, 4 ml of ice-cold Tris were added to the tube and the contents poured onto the filter, and the filter was washed twice with 4 ml of ice-cold Tris. The filtration was complete in about twelve seconds. Filters were put in scintillation vials, 8 ml of Formula 947 scintillation fluid added, and the vials left overnight, shaken, and counted in a liquid scintillation counter at 40% efficiency.
Nonspecific binding was defined as binding in the presence of 100 μM N^6 -cyclopentyladenosine, and specific binding was defined as total binding minus nonspecific binding. The IC50 was calculated by weighted nonlinear least squares curve-fitting to the mass-action equation. [formula] where Y is cpm bound
T is cpm total binding without drug
S is cpm specific binding without drug
D is the concentration of drug and
K is the IC50 of the drug
Weighting factors were calculated under the assumption that the standard deviation was proportional to the predicted value of Y. Nonspecific binding was treated as a very large (infinite) concentration of drug in the computer analysis.

[1] = Antihypertensive evaluation (AHP3), aortic blood pressure in conscious rats; format: in vivo; conditions: conscious rat
Text: ANTIHYPERTENSIVE EVALUATION (AHP3)
This test procedure is described in the following paragraphs.
A Method for the Direct Monitoring of Aortic Blood
Pressure and Heart Rate from Conscious Rats
The continuous monitoring of pulsatile blood pressure (BP) from unrestrained conscious rats surgically equipped with polyethylene cannulas was accomplished by means of a computer assisted data capture scheme (CADCS). The basic elements of the methodology are the cannulation procedure and the CADCS.
Rats were anesthetized with Telazol (1:1 tiletamine HCl and zolazepam HCl); 20-40 mg/kg IM and the descending aorta exposed via a midline incision. Cannulas fabricated from polyethylene tubing were inserted into the aorta via an undersized puncture hole below the renal arteries. The puncture hole was made by a 23 G disposable needle with a section of the aorta clamped off above and below the puncture site. The cannulas, consisting of a PE100 (0.86 mm ID) body and a PE50 (0.58 mm ID) tip, were attached to a trocar, inserted through the psoas muscle, and passed subcutaneously along the midline of the back and externalized between the ears. The cannulas were anchored to the psoas muscle and between the scalulae (3-0 green braided suture). The midline incision was closed in two steps (muscle first, skin second) using continuous over-and-over sutures (4-0 chronic). Each rat was then given penicillin 30,000 units subcutaneously (Penicillin G Procaine Sterile Suspension).
The rats were fitted with a harness-spring-swivel assembly designed to protect the cannula and to provide the rat relative freedom of movement. The harnesses were fabricated from nylon hook and loop tape cemented to a metal plate to which spring wires (18-8 stainless steel) were attached to brass swivels. Each polyethylene cannula was channeled through a spring and connected through a swivel to a pressure transducer (Model P23Gb; Statham Instruments; Hato Rey, Puerto Rico) and an infusion pump (Sage model 234-7; Orion Research, Cambridge MA) by means of PE100 tubing. While on test, each rat received a continuous slow infusion of heparinized saline solution (approximately 400 μl or 40 units of heparin per 24 hours period) to prevent clot formation. Additional "flushes" of the cannula with heparinized saline were carried out when the aortic pulse pressure (systolic minus diastolic) was less than 25 mm Hg.
The pulsatile blood pressure and heart rate of each of 32 rats was monitored every minute by means of two in-laboratory microcomputers communicating directly with a data concentrator computer. The data were first stored on the data concentrator disk and then transferred to a magnetic tape for analysis and report generation by the main research computer. The overall scheme involved modulating the primary signal from the pressure transducer, generating the primary data set of the one-minute values for systolic, diastolic, and mean blood pressures and heart rate by the in-lab microcomputer and the storage, analysis, and report generation by the main research computer.
The transducers were connected to analog signal conditioning modules. The modules provided a regulated excitation voltage for the transducers, amplification as required to interface the microprocessors and an active low pass filter to compensate for the pressure wave form distortion produced by the flexible, fluid filled, narrow cannula. The distortion was 22-26 Hz and this provided a reliable estimate of both systolic and diastolic blood pressure.
The microcomputers (one for each of two groups of 16 rats) were connected to the input components through the module interface units, an analog-to-digital converter for the pressure wave form signal and the digital inputs for the dose and event marker switches. The microcomputer controlled the sequential acquisition of data from the modular interface units through an internal synchronous time-of-day clock/time base generator. […]

Row | IC50 (adenosine A2 receptor) [µM] | Structure (SMILES) | Maximum BP ↓ MAP ([1]; 10 mg/kg) [%] | Maximum BP ↓ MAP ([1]; 3 mg/kg) [%] | Maximum BP ↓ MAP ([1]; 1 mg/kg) [%]
1 | 0.46 | OC[C@H]1O[C@@H](n2cnc3c(NCC4(c5ccccc5)CCCC4)ncnc32)[C@H](O)[C@@H]1O [Example 10, N6-((1-Phenylcyclopentyl)methyl)adenosine] | 10 | – | –
2 | 3.2 | OC[C@H]1O[C@@H](n2cnc3c(NCC4(c5ccccc5)CCCCC4)ncnc32)[C@H](O)[C@@H]1O [Example 11, N6-((1-Phenylcyclohexyl)methyl)adenosine] | 5 | – | –
3 | 0.42 | O[C@@H]1[C@H](O)[C@@H](CCl)O[C@H]1n1cnc2c(NCC3(c4ccccc4)CC3)ncnc21 [Example 5, 5'-Deoxy-5'-chloro-N6-((1-phenylcyclopropyl)methyl)adenosine] | – | – | –
4 | 0.0086 | OC[C@H]1O[C@@H](n2cnc3c(NCC4(c5cccs5)CC4)ncnc32)[C@H](O)[C@@H]1O [Example 3, N6-((1-Thien-2-ylcyclopropyl)methyl)adenosine] | – | 43 | –
5 | 0.087 | OC[C@H]1O[C@@H](n2cnc3c(NCC4(c5cccs5)CCC4)ncnc32)[C@H](O)[C@@H]1O [Example 9, N6-((1-Thien-2-ylcyclobutyl)methyl)adenosine] | – | 10 | –
6 | 0.2 | OC[C@H]1O[C@@H](n2cnc3c(NCC4(c5cccc(Cl)c5)CC4)ncnc32)[C@H](O)[C@@H]1O [Example 2, N6-((1-(3-Chlorophenyl)cyclopropyl)methyl)adenosine] | – | – | –
7 | 1.2 | OC[C@H]1O[C@@H](n2cnc3c(NCC4(c5ccc(Cl)cc5)CC4)ncnc32)[C@H](O)[C@@H]1O [Example 12, N6-((1-(4-Chlorophenyl)cyclopropyl)methyl)adenosine] | 23 | – | –
8 | 0.067 | O[C@@H]1[C@H](O)[C@@H](CCl)O[C@H]1n1cnc2c(NCC3(c4cccs4)CC3)ncnc21 [Example 6, 5'-Chloro-5'-deoxy-N6-((1-thien-2-ylcyclopropyl)methyl)adenosine] | – | – | –
9 | 0.15 | OC[C@H]1O[C@@H](n2cnc3c(NCC4(c5ccccc5)CCC4)ncnc32)[C@H](O)[C@@H]1O [Example 7, N6-((1-Phenylcyclobutyl)methyl)adenosine] | 32 | – | –
10 | 0.32 | OC[C@H]1O[C@@H](n2cnc3c(NCC4(c5cccc(Cl)c5)CCC4)ncnc32)[C@H](O)[C@@H]1O [Example 8, N6-((1-(3-Chlorophenyl)cyclobutyl)methyl)adenosine] | – | – | –
11 | 0.08 | OC[C@H]1O[C@@H](n2cnc3c(NCC4(c5ccccc5)CC4)ncnc32)[C@H](O)[C@@H]1O [Example 1, N6-((1-Phenylcyclopropyl)methyl)adenosine] | 23 | 23 | 13
